Read-outs that look alike come from different tables or passages of the source.

Broadly, the IC50 is the point on the concentration scale where inhibition reaches its midpoint.

One assay relates to PC-3 cancer cells. In words: MTT antiproliferative assay, PC-3. Conditions: MTT assay after 48 h. In kind it is cell-based, human. From the text:
(§1) An A549 (human non-small cell lung cancer cell line) cell line was purchased from the Shanghai Cell Bank of the Chinese Academy of Sciences; PC-3 (human prostate cancer cell line) cell line was donated by the Key Laboratory of Natural Product Chemistry of the Chinese Academy of Sciences of Guizhou Province; HepG2 (human liver cancer cell line) and NRK 52E (normal rat kidney cell line) cell line was donated by Guizhou Medical University; all cell lines were kept by the laboratory.
(§2) The antiproliferative activity of target compounds against A549, PC-3, HepG2, and NRK-52E were determined by MTT assay, as described in previous articles. The assay was recorded at 490 nm by an Infinite® M200 PRO multimode microplate (Tecan, Männedorf, Switzerland).
(Formazan colour is commonly taken as a measure of viable cells.)

A further assay deals with A549 cancer cells. The assay can be described thus: MTT antiproliferative assay, A549. Conditions: MTT assay after 48 h. In kind it is cell-based, human.
From the text: as §1, §2

In a further assay the test system is HepG2 cancer cells. In words: MTT antiproliferative assay, HepG2. In kind it is cell-based, human. Conditions: read-out: IC50 HepG2.
From the text: as §1, §2

Another assay deals with NRK-52E cells. In words: MTT cytotoxicity assay, normal NRK-52E cells. The class given is cell-based. Conditions: MTT assay after 48 h, normal rat kidney cell line.
From the text: as §1, §2

In the next assay the test system is A549 cells. In words: Scratch test (cell migration). In kind it is cell-based, human. Conditions: A549, 6 μM. The protocol: According to the previous methods, A549 cells of the logarithmic growth stage were cultured in 6-well plates with two lines on the back, with each well containing a density of 1 × 10^6 cells/mL. After the cells adhered to the wall, three uniform thin lines were drawn in each well by a sterile pipette tip. Afterward, the medium containing 1% fetal bovine serum (FBS) and various concentrations of compounds were added in wells. After the different time of incubation, the cells were performed by an inverted fluorescence microscope. Then the scratch healing rate was calculated: Migration distance (n h) = edge distance (0 h) − edge distance (12 h or 24 h).

The mark [1] stands for this setting: Homo sapiens, HepG2, 48 h, MTT assay after 48 h.

In the case of `COc1cc(/C=C/C(=O)NNC(=O)/C=C/c2ccccc2)ccc1O` [I15], the IC50 was more than 300 µM in the assay on PC-3 cancer cells (Homo sapiens); 35.8 ± 0.59 µM in the assay with A549 cancer cells (Homo sapiens, A549); 31.1 ± 7.66 µM in the assay on HepG2 cancer cells (setting [1]).

`O=C(/C=C/c1ccccc1)NNC(=O)/C=C/c1ccc([N+](=O)[O-])cc1` [I7]: the IC50 with PC-3 cancer cells (Homo sapiens) is 8.79 ± 3.19 µM; with A549 cancer cells (Homo sapiens, A549), 4.17 ± 0.93 µM; with HepG2 cancer cells (setting [1]), 7.63 ± 1.75 µM; in the assay on NRK-52E cells, 21 ± 1.75 µM.

With `COc1cc2ncnc(Nc3ccc(F)c(Cl)c3)c2cc1OCCCN1CCOCC1` [Gefitinib, reference compound], the “Cell relative migration (migration rate)” value in the assay with A549 cells (12 h (control 12.5%)) was 3.98%; in the assay on A549 cells (24 h (control 24.4%)), 7.97%.

Consider `O=C(/C=C/c1ccccc1)NNC(=O)/C=C/c1ccccc1[N+](=O)[O-]` [I2], for which the IC50 in the assay on PC-3 cancer cells (Homo sapiens) came out at 8.08 ± 2.24 µM; in the assay on A549 cancer cells (Homo sapiens, A549) it was 7.55 ± 1.22 µM; in the assay on HepG2 cancer cells (setting [1]) it was 9.33 ± 0.95 µM.

As for `COc1ccc(/C=C/C(=O)NNC(=O)/C=C/c2ccc([N+](=O)[O-])cc2)cc1` [I24, (E)-3-(4-methoxyphenyl)-N'-((E)-3-(4-nitrophenyl)acryloyl)acrylohydrazide], the IC50 with PC-3 cancer cells (Homo sapiens) is 15.7 ± 2.98 µM; in the assay with A549 cancer cells (Homo sapiens, A549) it was 5.17 ± 0.41 µM; with HepG2 cancer cells (setting [1]), 8.08 ± 2.25 µM.

In the case of `COc1cccc(/C=C/C(=O)NNC(=O)/C=C/c2ccccc2)c1` [I6], the concentration for half-maximal inhibition (IC50) in the assay on PC-3 cancer cells (Homo sapiens) came out at 160 ± 10.9 µM; in the assay on A549 cancer cells (Homo sapiens, A549), 41 ± 4.47 µM; with HepG2 cancer cells (setting [1]), 46.8 ± 0.14 µM.

With `COc1cc(/C=C/C(=O)CC(=O)/C=C/c2ccc(O)c(OC)c2)ccc1O` [Curcumin, reference compound], the IC50 in the assay on PC-3 cancer cells (Homo sapiens) was 73.4 ± 4.99 µM; with A549 cancer cells (Homo sapiens, A549) it was 69.6 ± 1.18 µM; in the assay with HepG2 cancer cells (Homo sapiens, HepG2, 48 h) it was 40.2 ± 1.74 µM; in the assay with NRK-52E cells it was more than 300 µM.

With `O=C(/C=C/c1ccccc1)NNC(=O)/C=C/C1CC=CCC1` (stereo not shown) [I21], the IC50 with PC-3 cancer cells (Homo sapiens) was 21.6 ± 0.89 µM; in the assay with A549 cancer cells (Homo sapiens, A549), 8.27 ± 0.8 µM; with HepG2 cancer cells (setting [1]) it was 20.4 ± 0.86 µM.

Take `CN(C)c1ccc(/C=C/C(=O)NNC(=O)/C=C/c2ccccc2)cc1` [I14]: the IC50 with PC-3 cancer cells (Homo sapiens) came out at 7.81 ± 1.69 µM; with A549 cancer cells (Homo sapiens, A549) it was 12.8 ± 0.6 µM; in the assay with HepG2 cancer cells (setting [1]) it was 3.42 ± 0.49 µM; in the assay on NRK-52E cells, 7 ± 0.3 µM.

As to `COc1cccc(/C=C/C(=O)NNC(=O)/C=C/c2cccc(OC)c2)c1` [I26], the IC50 in the assay with PC-3 cancer cells (Homo sapiens) was 21 ± 2.32 µM; in the assay with A549 cancer cells (Homo sapiens, A549) it was 11 ± 1.72 µM; with HepG2 cancer cells (setting [1]), 14.5 ± 2.56 µM.

For `O=C(/C=C/c1ccccc1)NNC(=O)/C=C/c1ccc(F)cc1` [I9], the IC50 was found to be 4.68 ± 0.69 µM in the assay on PC-3 cancer cells (Homo sapiens); 24.9 ± 1.54 µM in the assay on A549 cancer cells (Homo sapiens, A549); 7.63 µM in the assay with HepG2 cancer cells (setting [1]); 4.75 ± 0.36 µM with HepG2 cancer cells (MTT assay after 48 h).

On to `O=C(/C=C/c1ccccc1)NNC(=O)/C=C/C1CC1` [I16], for which the IC50 was 80.5 ± 5.43 µM with PC-3 cancer cells (Homo sapiens); 16.4 ± 0.98 µM in the assay with A549 cancer cells (Homo sapiens, A549); 78.5 ± 1.39 µM in the assay with HepG2 cancer cells (setting [1]).

`Cc1ncsc1/C=C/C(=O)NNC(=O)/C=C/c1ccccc1` [I19]: the IC50 came out at 96.4 ± 8.36 µM in the assay on PC-3 cancer cells (Homo sapiens); 26.6 ± 5.08 µM in the assay on A549 cancer cells (Homo sapiens, A549); 89.3 ± 8.89 µM with HepG2 cancer cells (setting [1]).

`O=C(/C=C/c1ccccc1)NNC(=O)/C=C/c1ccc(Cl)cc1` [I8]: the IC50 with PC-3 cancer cells (Homo sapiens) was 63.2 ± 3.86 µM; in the assay with A549 cancer cells (Homo sapiens, A549), 9.57 ± 1.92 µM; with HepG2 cancer cells (setting [1]), 6.98 ± 1.3 µM.

`O=C(/C=C/c1ccccc1)NNC(=O)/C=C/c1cccc(O)c1` [I5]: the IC50 with PC-3 cancer cells (Homo sapiens) came to 6.68 ± 0.96 µM; in the assay on A549 cancer cells (Homo sapiens, A549) it was 5.09 ± 0.08 µM; in the assay on HepG2 cancer cells (setting [1]), 8.69 ± 1.04 µM; with NRK-52E cells, 50 ± 4.4 µM.

In the case of `O=C(/C=C/c1ccccc1)NNC(=O)/C=C/C1CCCCC1` [I20], the IC50 is 21.8 ± 3.15 µM with PC-3 cancer cells (Homo sapiens); 16.3 ± 3.25 µM with A549 cancer cells (Homo sapiens, A549); more than 300 µM with HepG2 cancer cells (setting [1]).

Consider `CCOc1ccc(/C=C/C(=O)NNC(=O)/C=C/c2ccccc2)cc1` [I13], for which the IC50 with PC-3 cancer cells (Homo sapiens) was found to be 22.5 ± 2.64 µM; in the assay with A549 cancer cells (Homo sapiens, A549), 15 ± 4.9 µM; in the assay on HepG2 cancer cells (setting [1]), 15.4 ± 0.93 µM.

“(E)-3-(3-methoxyphenyl)-N'-((E)-3-(3-methoxyphenyl)acryloyl)acrylohydrazide [I25]”: the IC50 in the assay with PC-3 cancer cells came to 142 ± 6.79 µM; in the assay on A549 cancer cells it was 144 ± 8.95 µM; with HepG2 cancer cells (MTT assay after 48 h), 80 ± 4.04 µM.

With `O=C(/C=C/c1ccccc1)NNC(=O)/C=C/c1cccs1` [I18], the IC50 was 15.9 ± 1.14 µM in the assay with PC-3 cancer cells (Homo sapiens); 13.8 ± 0.29 µM in the assay with A549 cancer cells (Homo sapiens, A549); 21.1 ± 3.76 µM with HepG2 cancer cells (setting [1]).

On to `O=C(/C=C/c1ccccc1)NNC(=O)/C=C/c1ccccc1` [I1], for which the IC50 in the assay on PC-3 cancer cells (Homo sapiens) is 5.95 ± 1.52 µM; in the assay with A549 cancer cells (Homo sapiens, A549), 26.7 ± 0.43 µM; in the assay with HepG2 cancer cells (setting [1]), 8.17 ± 0.46 µM.

On to `O=C(/C=C/c1ccccc1)NNC(=O)/C=C/c1ccccc1Cl` [I3], for which the half-inhibitory concentration (IC50) was 7.38 ± 0.24 µM in the assay with PC-3 cancer cells (Homo sapiens); 6.48 ± 0.41 µM in the assay on A549 cancer cells (Homo sapiens, A549); 9.53 ± 1.74 µM with HepG2 cancer cells (setting [1]).

Take `O=C(/C=C/c1ccccc1)NNC(=O)/C=C/c1ccco1` [I17]: the IC50 with PC-3 cancer cells (Homo sapiens) turned out to be 36 ± 0.7 µM; in the assay on A549 cancer cells (Homo sapiens, A549) it was 13 ± 2.4 µM; with HepG2 cancer cells (setting [1]), 34.5 ± 0.28 µM.

With `COc1ccc(/C=C/C(=O)NNC(=O)/C=C/c2ccccc2)cc1` [I12], the concentration for half-maximal inhibition (IC50) in the assay on PC-3 cancer cells (Homo sapiens) was 39.4 ± 3.54 µM; in the assay on A549 cancer cells (Homo sapiens, A549) it was 10.9 ± 0.25 µM; with HepG2 cancer cells (setting [1]), 21.1 ± 4.07 µM.

For `O=C(/C=C/c1ccccc1)NNC(=O)/C=C/c1cccnc1` [I22], the IC50 worked out at 159 ± 5.88 µM in the assay on PC-3 cancer cells (Homo sapiens); 60.2 ± 2.37 µM in the assay on A549 cancer cells (Homo sapiens, A549); 43.3 ± 1.1 µM in the assay with HepG2 cancer cells (setting [1]).

For `CC(C)c1ccc(/C=C/C(=O)NNC(=O)/C=C/c2ccccc2)cc1` [I11], the half-inhibitory concentration (IC50) in the assay with PC-3 cancer cells (Homo sapiens) turned out to be 19.2 ± 6.57 µM; with A549 cancer cells (Homo sapiens, A549), 43 ± 7.3 µM; in the assay with HepG2 cancer cells (setting [1]) it was 18.6 ± 3.9 µM.

Turning to `Cc1ccc(/C=C/C(=O)NNC(=O)/C=C/c2ccccc2)cc1` [I10], the IC50 in the assay with PC-3 cancer cells (Homo sapiens) amounted to 70.3 ± 9.88 µM; in the assay on A549 cancer cells (Homo sapiens, A549), 19.5 ± 4.95 µM; in the assay on HepG2 cancer cells (setting [1]) it was 23.6 ± 2.67 µM.

Take `O=C(/C=C/c1ccccc1)NNC(=O)/C=C/c1cccc([N+](=O)[O-])c1` [I4]: the IC50 in the assay with PC-3 cancer cells (Homo sapiens) is 15.8 ± 1.67 µM; in the assay with A549 cancer cells (Homo sapiens, A549), 6.05 ± 0.08 µM; with HepG2 cancer cells (setting [1]) it was 6.32 ± 1 µM.

Values taken from article PMC9604255, “Discovery of Simple Diacylhydrazine-Functionalized Cinnamic Acid Derivatives as Potential Microtubule Stabilizers” (International Journal of Molecular Sciences, 2022).
